Data taken from patent US5416222A, “3-pyrrolidine methanamines wherein the alpha-carbon is substituted by 1 or 2 lower alkyl groups which are intermediates for pyridone-carboxylic acid derivatives” (Daiichi Seiyaku Co., Ltd., priority 1985, dated 1995).
≈ marks a conversion by molar mass, not a printed value.

How the values were obtained:
Assay in all cases: antimicrobial activity, MIC, standard process of Japan Society of Chemotherapy
Type in all cases: cell-based
E. coli, NIHJ = details: for MIC: Escherichia coli, read-out: minimum growth inhibitory concentration (MIC)
Procedure: (§1) The antimicrobial activities of the compounds of the present invention were determined according to a standard process designated by the Japan Society of Chemotherapy and the minimum growth inhibitory concentrations (MIC) (μg/ml) the compounds were determined.

Pr. mirabilis, IF03849 = details: for minimum growth inhibitory concentration (MIC): Pr. mirabilis; for MIC: Proteus mirabilis, IF03849, Pr. mirabilis, read-out: minimum growth inhibitory concentration (MIC)
Procedure: as §1

Pr. vulgaris, 3167 = details: for minimum growth inhibitory concentration (MIC): Pr. vulgaris; for MIC: Proteus vulgaris, 3167, Pr. vulgaris, read-out: minimum growth inhibitory concentration (MIC)
Procedure: as §1

Ps. aeruginosa, 2063 = details: for minimum growth inhibitory concentration (MIC): Ps. aeruginosa; for MIC: Pseudomonas aeruginosa, 2063, Ps. aeruginosa, read-out: minimum growth inhibitory concentration (MIC)
Procedure: as §1

Ps. aeruginosa, 2128 = details: for minimum growth inhibitory concentration (MIC): Ps. aeruginosa; for MIC: Pseudomonas aeruginosa, 2128, Ps. aeruginosa, read-out: minimum growth inhibitory concentration (MIC)
Procedure: as §1

Ps. cepacia, IID1340 = details: for minimum growth inhibitory concentration (MIC): Ps. cepacia; for MIC: Burkholderia cepacia, IID1340, Ps. cepacia, read-out: minimum growth inhibitory concentration (MIC)
Procedure: as §1

Ps. maltophilia, IID1275 = details: for MIC: Stenotrophomonas maltophilia, IID1275, Ps. maltophilia, read-out: minimum growth inhibitory concentration (MIC)
Procedure: as §1

S. aureus, 209P = details: for MIC: Staphylococcus aureus, read-out: minimum growth inhibitory concentration (MIC)
Procedure: as §1

S. epidermidis, 56500 = details: for minimum growth inhibitory concentration (MIC): S. epidermidis; for MIC: Staphylococcus epidermidis, 56500, S. epidermidis, read-out: minimum growth inhibitory concentration (MIC)
Procedure: as §1

Ser. marcescens, 13001 = details: for minimum growth inhibitory concentration (MIC): Ser. marcescens; for MIC: Serratia marcescens, 13001, Ser. marcescens, read-out: minimum growth inhibitory concentration (MIC)
Procedure: as §1

Sh. flexneri, 2a5503 = details: for MIC: Shigella flexneri, read-out: minimum growth inhibitory concentration (MIC)
Procedure: as §1

[1] = system: Str. faecalis, ATCC 19433; details: for minimum growth inhibitory concentration (MIC): Str. faecalis; for MIC: Enterococcus faecalis, ATCC19433, Str. faecalis, read-out: minimum growth inhibitory concentration (MIC)
Procedure: as §1

Str. pyogenes, G-36 = details: for minimum growth inhibitory concentration (MIC): Str. pyogenes; for MIC: Streptococcus pyogenes, G36, Str. pyogenes, read-out: minimum growth inhibitory concentration (MIC)
Procedure: as §1

Compound	minimum growth inhibitory concentration (MIC) (Str. pyogenes, G-36) [µg/mL]	MIC (E. coli, NIHJ) [µg/mL]	MIC (Pr. mirabilis, IF03849) [µg/mL]	MIC (Pr. vulgaris, 3167) [µg/mL]	MIC (Ps. cepacia, IID1340) [µg/mL]	MIC (Ps. maltophilia, IID1275) [µg/mL]	MIC (S. aureus, 209P) [µg/mL]	MIC (S. epidermidis, 56500) [µg/mL]	MIC (Sh. flexneri, 2a5503) [µg/mL]	MIC [1] [µg/mL]	MIC (Str. pyogenes, G-36) [µg/mL]	MIC (Ps. aeruginosa, 2063) [µg/mL]	MIC (Ps. aeruginosa, 2128) [µg/mL]	MIC (Ser. marcescens, 13001) [µg/mL]	other results
1-Cyclopropyl-6,8-difluoro-1,4-dihydro-7-[3-(2S)-pyrrolidinyl)-1-pyrrolidinyl)-1-pyrrolidinyl]-4-oxoquinoline-3-carboxylic acid [Example 17]	0.10														minimum growth inhibitory concentration (MIC) (E. coli, NIHJ): ≤ 0.05 µg/mL; minimum growth inhibitory concentration (MIC) (Pr. mirabilis, IF03849): 0.20 µg/mL; minimum growth inhibitory concentration (MIC) (Pr. vulgaris, 3167): 0.10 µg/mL; minimum growth inhibitory concentration (MIC) (Ps. aeruginosa, 2063): 0.39 µg/mL; minimum growth inhibitory concentration (MIC) (Ps. aeruginosa, 2128): 0.20 µg/mL; minimum growth inhibitory concentration (MIC) (Ps. cepacia, IID1340): 0.78 µg/mL; minimum growth inhibitory concentration (MIC) (Ps. maltophilia, IID1275; Ps. maltophilia): 0.39 µg/mL; minimum growth inhibitory concentration (MIC) (S. aureus, 209P): ≤ 0.05 µg/mL; minimum growth inhibitory concentration (MIC) (S. epidermidis, 56500): 0.10 µg/mL; minimum growth inhibitory concentration (MIC) (Ser. marcescens, 13001): 0.10 µg/mL; minimum growth inhibitory concentration (MIC) (Sh. flexneri, 2a5503): ≤ 0.05 µg/mL; minimum growth inhibitory concentration (MIC) [1]: 0.10 µg/mL
CC(N)C1CCN(c2c(F)cc3c(=O)c(C(=O)O)cn(C4CC4)c3c2F)C1 (single isomer, unassigned) [Example 1, 7-[3-(1-Aminoethyl)-1-pyrrolidinyl]-1-cyclopropyl-6,8-difluoro-1,4-dihydro-4-oxoquinoline-3-carboxylic acid]		≤ 0.05	0.1 (≈ 0.265 µM)	0.1 (≈ 0.265 µM)	0.78 (≈ 2.07 µM)	0.2 (≈ 0.53 µM)	0.1 (≈ 0.265 µM)	0.1 (≈ 0.265 µM)	≤ 0.05	0.1 (≈ 0.265 µM)	0.1 (≈ 0.265 µM)				minimum growth inhibitory concentration (MIC) (Ps. aeruginosa, 2063): 0.78 µg/mL; minimum growth inhibitory concentration (MIC) (Ps. aeruginosa, 2128): 0.20 µg/mL; minimum growth inhibitory concentration (MIC) (Ser. marcescens, 13001): 0.20 µg/mL
CCn1cc(C(=O)O)c(=O)c2cc(F)c(N3CCC(C(C)N)C3)c(F)c21 (single isomer, unassigned) [Example 3, 7-[3-(1-Aminoethyl)-1-pyrrolidinyl]-1-ethyl-6,8-difluoro-1,4-dihydro-4-oxoquinoline-3-carboxylic acid]	0.39	≤ 0.05	0.2 (≈ 0.547 µM)		1.56 (≈ 4.27 µM)	0.78 (≈ 2.13 µM)	≤ 0.05		≤ 0.05			0.39 (≈ 1.07 µM)	0.2 (≈ 0.547 µM)	0.2 (≈ 0.547 µM)	minimum growth inhibitory concentration (MIC) (Pr. vulgaris, 3167): 0.20 µg/mL; minimum growth inhibitory concentration (MIC) (S. epidermidis, 56500): 0.20 µg/mL; minimum growth inhibitory concentration (MIC) [1]: 0.39 µg/mL
CNC(C)C1CCN(c2c(F)cc3c(=O)c(C(=O)O)cn(C4CC4)c3c2F)C1 (single isomer, unassigned) [Example 6, 1-Cyclopropyl-6,8-difluoro-1,4-dihydro-7-[3-(1-methylaminoethyl)-1-pyrrolidinyl]-4-oxoquinoline-3-carboxylic acid]	0.20	≤ 0.05		0.1 (≈ 0.255 µM)	0.78 (≈ 1.99 µM)	0.2 (≈ 0.511 µM)	≤ 0.05	0.1 (≈ 0.255 µM)	≤ 0.05			0.39 (≈ 0.996 µM)	0.2 (≈ 0.511 µM)	0.2 (≈ 0.511 µM)	minimum growth inhibitory concentration (MIC) (Pr. mirabilis, IF03849): 0.20 µg/mL; minimum growth inhibitory concentration (MIC) [1]: 0.20 µg/mL
CCC(N)C1CCN(c2c(F)cc3c(=O)c(C(=O)O)cn(CC)c3c2F)C1 (single isomer, unassigned) [Example 20, 1-ethyl-6,8-difluoro-7-[3-(1-aminopropyl)-1-pyrrolidinyl]-1,4-dihydro-4-oxoquinoline-3-carboxylic acid]		≤ 0.05	0.1 (≈ 0.264 µM)	≤ 0.05	0.39 (≈ 1.03 µM)	0.2 (≈ 0.527 µM)	≤ 0.05	≤ 0.05	≤ 0.05	≤ 0.05	≤ 0.05	0.39 (≈ 1.03 µM)	0.2 (≈ 0.527 µM)	0.1 (≈ 0.264 µM)	
CCC(N)C1CCN(c2c(F)cc3c(=O)c(C(=O)O)cn(C4CC4)c3c2F)C1 (single isomer, unassigned) [Example 21, 1-Cyclopropyl-6,8-difluoro-7-[3-(1aminopropyl)-1-pyrrolidinyl]-1,4-dihydro-4-oxoquinoline-3-carboxylic acid]		≤ 0.05	0.1 (≈ 0.255 µM)	≤ 0.05	0.2 (≈ 0.511 µM)	≤ 0.05	≤ 0.05	≤ 0.05	≤ 0.05	≤ 0.05	≤ 0.05	0.2 (≈ 0.511 µM)	0.1 (≈ 0.255 µM)	≤ 0.05	
CC(N)C1CCN(c2nc3c(cc2F)c(=O)c(C(=O)O)cn3C2CC2)C1 (stereo not shown) [Example 5, 7-[3-(1-Aminoethyl)-1-pyrrolidinyl]-1-cyclopropyl-6-fluoro-1,4-dihydro-4-oxo-1,8-naphthyridine-3-carboxylic acid]		≤ 0.05		0.05 (≈ 0.139 µM)		0.39 (≈ 1.08 µM)	≤ 0.05	≤ 0.05	≤ 0.05	0.2 (≈ 0.555 µM)	0.39 (≈ 1.08 µM)				minimum growth inhibitory concentration (MIC) (Pr. mirabilis, IF03849): 0.39 µg/mL; minimum growth inhibitory concentration (MIC) (Ps. aeruginosa, 2063): 0.78 µg/mL; minimum growth inhibitory concentration (MIC) (Ps. aeruginosa, 2128): 6.20 µg/mL; minimum growth inhibitory concentration (MIC) (Ps. cepacia, IID1340): 1.56 µg/mL; minimum growth inhibitory concentration (MIC) (Ser. marcescens, 13001): 0.20 µg/mL
CNC(C)C1CCN(c2nc3c(cc2F)c(=O)c(C(=O)O)cn3C2CC2)C1 (stereo not shown) [Example 8]		≤ 0.05	0.39 (≈ 1.04 µM)	0.1 (≈ 0.267 µM)	1.56 (≈ 4.17 µM)	0.78 (≈ 2.08 µM)	0.1 (≈ 0.267 µM)	0.2 (≈ 0.534 µM)	≤ 0.05	0.39 (≈ 1.04 µM)	0.78 (≈ 2.08 µM)	1.56 (≈ 4.17 µM)	0.39 (≈ 1.04 µM)	0.39 (≈ 1.04 µM)	
CCC(N)C1CCN(c2c(F)cc3c(=O)c(C(=O)O)cn(C4CC4)c3c2F)C1 (stereo not shown) [Example 9, 7-[3-(1-Aminopropyl)-1-pyrrolidinyl]-1-cyclopropyl-6,8-difluoro-1,4-dihydro-4-oxoquinoline-3-carboxylic acid]	≤ 0.05	≤ 0.05	0.1 (≈ 0.255 µM)	≤ 0.05	0.39 (≈ 0.996 µM)	0.1 (≈ 0.255 µM)	≤ 0.05	≤ 0.05	≤ 0.05	0.1 (≈ 0.255 µM)		0.78 (≈ 1.99 µM)	0.2 (≈ 0.511 µM)	≤ 0.05	
CCC(N)C1CCN(c2c(F)cc3c(=O)c(C(=O)O)cn(CC)c3c2F)C1 (stereo not shown) [Example 10, 7-[3-(1-Aminopropyl)-1-pyrrolindinyl]-1-ethyl-6,8-difluoro-1,4-dihydro-4-oxoquinoline-3-carboxylic acid]		≤ 0.05	0.2 (≈ 0.527 µM)	0.1 (≈ 0.264 µM)	1.56 (≈ 4.11 µM)	0.39 (≈ 1.03 µM)	≤ 0.05	0.1 (≈ 0.264 µM)	≤ 0.05	≤ 0.05	≤ 0.05	1.56 (≈ 4.11 µM)	6.39 (≈ 16.8 µM)	0.2 (≈ 0.527 µM)	
CCn1cc(C(=O)O)c(=O)c2cc(F)c(N3CCC(C(C)(C)N)C3)c(F)c21 (stereo not shown) [Example 12, 7-[3-(1-amino-1-methyl)ethyl-1-pyrrolidinyl]-1-ethyl-6,8-difluoro-1,4-dihydro-4-oxoquinoline-3-carboxylic acid]		≤ 0.05	0.39 (≈ 1.03 µM)	0.2 (≈ 0.527 µM)	1.56 (≈ 4.11 µM)	0.39 (≈ 1.03 µM)	≤ 0.05	0.1 (≈ 0.264 µM)	≤ 0.05	0.1 (≈ 0.264 µM)	0.1 (≈ 0.264 µM)	1.56 (≈ 4.11 µM)	0.39 (≈ 1.03 µM)	0.39 (≈ 1.03 µM)	
CNC(C)(C)C1CCN(c2c(F)cc3c(=O)c(C(=O)O)cn(C4CC4)c3c2F)C1 (stereo not shown) [Example 14, 1-Cyclopropyl-6,8-difluoro-1,4-dihydro-7-[3-(1-methyl-1-methylamino)ethyl-1-pyrrolidinyl]-4-oxoquinoline-3-carboxylic acid]		≤ 0.05	0.2 (≈ 0.493 µM)	0.2 (≈ 0.493 µM)	1.56 (≈ 3.85 µM)	0.39 (≈ 0.962 µM)	0.2 (≈ 0.493 µM)	0.2 (≈ 0.493 µM)	≤ 0.05	0.1 (≈ 0.247 µM)	0.1 (≈ 0.247 µM)	3.13 (≈ 7.72 µM)	0.39 (≈ 0.962 µM)	0.39 (≈ 0.962 µM)	
NC1(C2CCN(c3c(F)cc4c(=O)c(C(=O)O)cn(C5CC5)c4c3F)C2)CC1 (stereo not shown) [Example 15]		≤ 0.05	0.2 (≈ 0.514 µM)	0.1 (≈ 0.257 µM)	0.39 (≈ 1 µM)	0.2 (≈ 0.514 µM)	≤ 0.05	≤ 0.05	≤ 0.05	0.2 (≈ 0.514 µM)	≤ 0.05	0.39 (≈ 1 µM)	0.2 (≈ 0.514 µM)	0.2 (≈ 0.514 µM)	
